Results on two compounds are retold here after patent US20140309192A1, “MODULATORS OF THE G PROTEIN-COUPLED MAS RECEPTOR AND THE TREATMENT OF DISORDERS RELATED THERETO” (ARENA PHARMACEUTICALS, INC., priority 2011, published 2014).

“Also recorded” adds a separate entry of the source.

One experiment has as its target T1, rat Mas receptor (Rattus norvegicus, UniProt P12526).
T1 construct: expressed in transfected cells; host or cells: HEK293 (ATCC CRL-1573)
T1 sequence (P12526 1-324): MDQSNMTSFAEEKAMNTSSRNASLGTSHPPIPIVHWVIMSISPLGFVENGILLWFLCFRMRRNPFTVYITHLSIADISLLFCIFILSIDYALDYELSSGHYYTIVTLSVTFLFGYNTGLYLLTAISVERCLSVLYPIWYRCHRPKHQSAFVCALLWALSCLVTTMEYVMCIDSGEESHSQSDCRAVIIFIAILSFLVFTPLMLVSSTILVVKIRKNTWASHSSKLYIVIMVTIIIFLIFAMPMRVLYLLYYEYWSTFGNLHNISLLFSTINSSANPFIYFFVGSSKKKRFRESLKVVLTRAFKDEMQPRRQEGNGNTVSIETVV
Kind of experiment: cAMP Dynamic2 HTRF assay, HEK293 cells stably expressing rat Mas receptor. Format: cell-based. The conditions noted are these: forskolin stimulated cAMP, means ± SEM, NR = No Response, read-out: Gi/cAMP IC50. The procedure: cAMP accumulation in HEK293 cells stably expressing human or rat Mas receptors was determined by the 384 well cAMP Dynamic2 Homogenous Time-Resolved Fluorescence (HTRF®) assay (CisBio Cat#62AM4PEB) following the manufacturer's protocol. Briefly, cells were plated at 30,000 or 1000 cells per well in 5 μL stimulation buffer (PBS containing 500 μM IBMX and 0.1% bovine serum albumin), 5 μL of Mas compounds diluted in PBS were added to each well and serial diluted cAMP standards were also added to corresponding wells at this step. For detecting […] activities, 10 μM forskolin was included with the compounds for a final concentration of 5 μM at the stimulation step. Following 1 h stimulation at room temperature, d2-labeled cAMP and anti-cAMP cryptate conjugate diluted in detection buffer (included in the kit) were added to cells sequentially at 5 μl per well. The plates were incubated further for 1 h at room temperature. Ratiometic measurements of fluorescence emission at 665 nm and 620 nm were obtained by Pherastar fluorometer (BMG Labtech) and cAMP levels in each well were calculated according to the standard curves on each plate. IC50 values were obtained by fitting data to a nonlinear curve-fitting program (GraphPad Software, Inc., La Jolla Calif.).

For the next experiment, the system named is LPS induced TNFα. Kind of experiment: LPS model for sepsis induction, serum TNFα ELISA in mice. Format: in vivo, mouse. The procedure:
Mice were treated intravenously with either 20% DMSO (vehicle), 1, 3 or 10 mg/kg Compound 170 in 20% DMSO. Alternatively animals were treated with 1 mg/kg IB-MECA in 0.1% DMSO as a positive control (n=6 per group). 1 hour after drug treatment, animals received 500 μg of LPS intraperitoneally Animals were bled 75 minutes after LPS treatment and the blood was spun down for serum. An ELISA for mouse TNFα (Invitrogen) was performed on 1:50 diluted samples the following day.

With `COc1cc([N+](=O)[O-])ccc1S(=O)(=O)N1CC(CN2CCN(c3ccccn3)CC2)C(c2cccc(F)c2)C1` (stereo not drawn) [AR234960], the IC50 on rat Mas receptor stood at 1710 ± 11 nM.
For the compound `NC(=O)[C@H](CO)NCc1ccc(C(=O)Nc2ccc(Cl)cc2N2CCN(CCC(F)(F)F)CC2)c(F)c1F` [Compound 170, (S)-4-((1-Amino-3-hydroxy-1-oxopropan-2-ylamino)methyl)-N-(4-chloro-2-(4-(3,3,3-trifluoropropyl)piperazin-1-yl)phenyl)-2,3-difluorobenzamide], in the experiment with LPS induced TNFα (10 mg/kg i.v., IB-MECA 1 mg/kg), the “Suppression of TNFα induction compared with positive control” value is “not statistically different from the positive control IB-MECA”. Further, the “Suppression of TNFα induction” value in the experiment with LPS induced TNFα (1, 3 or 10 mg/kg i.v. 1 hour before 500 μg LPS i.p., serum 75 minutes after LPS) was “significant to control treated animals at the 10 and 3 mg/kg dose; also recorded: suppression of TNFα induction”.
